Laboratory results reported in patent US8841285B2, “Potent immunosuppressive agents, derivatives and uses” (priority 2002, dated 2014).

What was measured:
RKO cells = assay: cell proliferation assay, RKO cells; assay type: cell-based; conditions: Homo sapiens
Description: Cell Proliferation Assay. 1×10^5 of indicated cells in each well of a 96-well plate were treated with indicated compounds for 24 h followed by addition of 0.11 μCi of [^3H]-thymidine (6.7 Ci/mmol) per well for 6 h, followed by harvesting to GF/C filtermats using a cell harvester. Filtermats were air-dried and scintillation counted. IC50s were determined from quadruplicate data readings and curve-fitting analysis.

[1] = test system: cap-dependent translation; assay: in vitro translation in RRL, bicistronic reporter, cap-dependent cistron; assay type: biochemical, rabbit; conditions: HCV IRES bicistronic reporter
Description: In vitro Translation and Transcription. pSP/(CAG)33/FF/HCV/Ren·pA51 and pKS/FF/EMC/Ren were linearized by BamHI, then purified by phenol:chloroform extraction and ethanol precipitation, and dissolved in water. pSP/(CAG)33/FF/HCV/Ren·A51 and pKS/FF/EMC/Ren were individually transcribed using a large scale RNA production system in the presence of m7Gppp cap analog followed by incubation with DNase as described by the manufacturer. Resulting RNA was purified using a kit as described by the manufacturer. Translation was performed using a rabbit reticulocyte lysate system as per instructions. Briefly, 200 ng of purified RNA was combined in a 20 μl reaction containing 10 μl RRL, 0.2 μl each of minus Met and minus Leu amino acid mixtures, 70 mM KCl, 2 mM DTT, 1× translation buffer, and 10 units of RNasin. Compounds or DMSO were added to a final DMSO concentration of 2%. Reactions were incubated at 30° C. for 1.5 h, then 5 μl of the reaction mixture was assayed for luciferase activity as per instructions of luciferas reporter assay system.

293T cells = assay: cellular polyribosome profiles; assay type: cell-based; conditions: 30 min treatment
Description: Cellular polyribosome profiles. 293T cells were treated as indicated for 30 min. Cells were washed twice with ice-cold PBS and pipetted for 5 min in 500 μl of chilled TMK100 buffer (20 mM Tris-HCl pH 7.4, 5 mM MgCl2 100 mM KCl, 2 mM DTT, 1% Triton X-100 and 100 U/ml RNAsin in DEPC water). After clearing at 10,000×g (10 min) at 4° C., the supernatant (S10) was layered onto 11 ml, 15-45% linear sucrose gradient containing 20 mM HEPES pH 7.4, 100 mM KCl, 5 mM MgCl2 and 2 mM DTT. Ultracentrifugation at 40,000 rpm for 1.5 h at 4° C. was performed in a suitable rotor. Fractions were collected from the top of the gradient by injection of Flurinert FC-40 from bottom of centrifuge tube. Gradient profiles were monitored at 254 nm. For immunoblotting, 7 mg of total protein were processed as described above, followed by collection of 500 μl fractions were collected from the top. 100 μl aliquots of each were boiled in SDS sample buffer, followed by SDS-PAGE and immunoblotting.

HeLa cells = assay type: cell-based

Compound	IC50 (RKO cells)	inhibition of cap- versus HCV IRES-dependent translation [1]	effect on polysome profile (293T cells)	stress granule formation (HeLa cells)
CC(/C=C/C(C)=C/[C@@H]1Cc2nc(cs2)[C@@H](C)CC(NCC(=O)NCCOCCOCCNC(=O)CCCC[C@@H]2SCC3NC(=O)NC32)CC(=O)O[C@@H](C)C/C(C)=C/C=C\C(=O)O1)=C\CN(C)C (some centres unmarked) [B-PatA, Biotin-PEO-Pateamine A]	< 15 nM	–	–	–
C[C@@H]1C[C@@H]([C@H](O)CC2CC(=O)NC(=O)C2)C(=O)[C@@H](C)C1 [CHX, cycloheximide]	–	nearly equal inhibition	did not perturb the sucrose gradient profile	did not induce stress granule formation
arsenite	–	–	–	eIF4B co-localized with TIA-1 in stress granules
